Where two headings read alike, the source gives them in different places.
Experiments:
[1] = test system: Phosphorylation of ERK1/2 in A549 cells; assay: Phospho-ERK1/2 MSD assay in A549 cells; assay type: cell-based; details: read-out: p-ERK IC50 (2 h, A549; μM), 2 h compound treatment, A549 cells, EGF stimulated
Outline: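 MSD electrochemiluminescent read-out of phospho-ERK1/2 in RIPA lysates. Cells in RPMI 1640 with 10% FBS received titrated compound for 2 or 4 h, then 10 ng/mL EGF for 10 min before ice-cold PBS wash and lysis.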

[2] = test system: Phosphorylation of ERK1/2 in MIA PaCa-2 cells; assay: Phospho-ERK1/2 MSD assay in MIA PaCa-2 cells; assay type: cell-based; details: read-out: p-ERK IC50 (2 h, MiaPaCa-2; μM), 2 h compound treatment, MIA PaCa-2 cells, EGF stimulated
Outline: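 Phospho-ERK1/2 measured by MSD electrochemiluminescence kit in RIPA lysates of MIA PaCa-2 cells. Cells were treated with compound titrations for 2 or 4 h at 37 °C, 5% CO2, followed by a 10 min pulse of 10 ng/mL EGF.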

[3] = target: GDP-bound KRAS protein (aa 1-169), containing both G12C and C118A amino acid substitutions (Homo sapiens (Human), UniProt P01116, C118A/G12C); assay: Coupled nucleotide exchange assay (SOS-mediated nucleotide exchange, AlphaScreen); assay type: biochemical; details: read-out: Coupled exchange IC50 (5 min; μM); 5 min compound pre-incubation
Sequence of GDP-bound KRAS protein (aa 1-169), containing both G12C and C118A amino acid substitutions (P01116 other isoform, or with tags, fused parts or gaps G12C/C118A): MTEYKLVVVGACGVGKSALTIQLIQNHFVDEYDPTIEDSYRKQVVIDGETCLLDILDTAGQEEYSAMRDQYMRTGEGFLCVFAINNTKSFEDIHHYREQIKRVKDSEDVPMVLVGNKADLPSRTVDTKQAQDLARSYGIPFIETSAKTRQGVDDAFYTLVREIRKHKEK

| Compound | IC50 ([1]; Homo sapiens, A549, 2 h) [µM] | IC50 ([2]; Homo sapiens, MIA PaCa-2, 2 h) [µM] | IC50 [3] [µM] | IC50 [1] [µM] | IC50 [2] [µM] |
| --- | --- | --- | --- | --- | --- |
| C=CC(=O)N1C[C@H](C)N(c2nc(=O)n(-c3c(C)ccnc3C(C)C)c3nc(-c4ccccc4NC(=O)OC)c(Cl)cc23)C[C@H]1C (atropisomer, axis not shown; (M)) [Example 129-7, (M)-Methyl-N-[2-[6-chloro-4-[(2S,5R)-2,5-dimethyl-4-prop-2-enoyl-piperazin-1-yl]-1-(2-isopropyl-4-methyl-3-pyridyl)-2-oxo-pyrido[2,3-d]pyrimidin-7-yl]phenyl]carbamate] | > 7.5 | 0.025 | 0.064 | – | – |
| C=CC(=O)N1C[C@H](C)N(c2nc(=O)n(-c3c(C)ccnc3C(C)C)c3nc(-c4c(F)cccc4NC(=O)OC)c(Cl)cc23)C[C@H]1C (atropisomer, axis not shown; (M)) [Example 129-8, (M)-Methyl N-[2-[6-chloro-4-[(2S,5R)-2,5-dimethyl-4-prop-2-enoyl-piperazin-1-yl]-1-(2-isopropyl-4-methyl-3-pyridyl)-2-oxo-pyrido[2,3-d]pyrimidin-7-yl]-3-fluoro-phenyl]carbamate] | > 7.5 | 0.023 | 0.056 | – | – |
| C=CC(=O)N1C[C@H](C)N(c2nc(=O)n(-c3c(C)ccnc3C(C)C)c3nc(-c4c(F)cccc4NC(=O)C4CC4)c(Cl)cc23)C[C@H]1C (atropisomer, axis not shown; (M)) [Example 129-9, (M)-N-[2-[6-Chloro-4-[(2S,5R)-2,5-dimethyl-4-prop-2-enoyl-piperazin-1-yl]-1-(2-isopropyl-4-methyl-3-pyridyl)-2-oxo-pyrido[2,3-d]pyrimidin-7-yl]-3-fluoro-phenyl]cyclopropanecarboxamide] | > 7.5 | 0.048 | 0.008 | – | – |
| C=CC(=O)N1C[C@H](C)N(c2nc(=O)n(-c3c(C)ccnc3C(C)C)c3nc(-c4c(F)cccc4NC(=O)C(F)F)c(Cl)cc23)C[C@H]1C (atropisomer, axis not shown; (M)) [Example 129-10, (M)-N-[2-[6-Chloro-4-[(2S,5R)-2,5-dimethyl-4-prop-2-enoyl-piperazin-1-yl]-1-(2-isopropyl-4-methyl-3-pyridyl)-2-oxo-pyrido[2,3-d]pyrimidin-7-yl]-3-fluoro-phenyl]-2,2-difluoro-acetamide] | > 7.5 | 0.049 | 0.041 | – | – |
| C=CC(=O)N1C[C@H](C)N(c2nc(=O)n(-c3c(C)ccnc3C(C)C)c3nc(-c4ccccc4NC(=O)C(F)F)c(Cl)cc23)C[C@H]1C (atropisomer, axis not shown; (M)) [Example 129-11, (M)-N-[2-[6-Chloro-4-[(2S,5R)-2,5-dimethyl-4-prop-2-enoyl-piperazin-1-yl]-1-(2-isopropyl-4-methyl-3-pyridyl)-2-oxo-pyrido[2,3-d]pyrimidin-7-yl]phenyl]-2,2-difluoro-acetamide] | > 7.5 | 0.247 | 0.152 | – | – |
| C=CC(=O)N1C[C@H](C)N(c2nc(=O)n(-c3c(C)ccnc3C(C)C)c3nc(-c4cc(O)cc5ccccc45)c(Cl)cc23)C[C@H]1C (atropisomer, axis not shown; (M)) [Example 132-1, (M)-6-Chloro-4-[(2S,5R)-2,5-dimethyl-4-prop-2-enoyl-piperazin-1-yl]-7-(3-hydroxy-1-naphthyl)-1-(2-isopropyl-4-methyl-3-pyridyl)pyrido[2,3-d]pyrimidin-2-one] | – | – | 0.053 | > 7.5 | 0.46 |
| C=CC(=O)N1CCN(c2nc(=O)n(-c3c(C)ccnc3C(C)C)c3nc(-c4c(N)cccc4F)c(Cl)cc23)CC1CC#N (atropisomer, axis not shown; (M)) [Example 144-1, (M)-2-[4-[7-(2-Amino-6-fluoro-phenyl)-6-chloro-1-(2-isopropyl-4-methyl-3-pyridyl)-2-oxo-pyrido[2,3-d]pyrimidin-4-yl]-1-prop-2-enoyl-piperazin-2-yl]acetonitrile] | – | – | 0.166 | > 7.5 | 0.23 |
| C=CC(=O)N1CCN(c2nc(=O)n(-c3c(C)ccnc3C(C)C)c3nc(Cl)c(Cl)cc23)CC1CC#N (atropisomer, axis not shown; (M)) [Example 144-2-2, (M)-2-[4-[6,7-Dichloro-1-(2-isopropyl-4-methyl-3-pyridyl)-2-oxo-pyrido[2,3-d]pyrimidin-4-yl]-1-prop-2-enoyl-piperazin-2-yl]acetonitrile] | 4 | 3.1 | 9.13 | – | – |
| C=CC(=O)N1CCN(c2nc(=O)n(-c3c(C)ccnc3C(C)C)c3nc(-c4c(O)cccc4F)c(Cl)cc23)CC1CC#N (atropisomer, axis not shown; (M)) [Example 144-3, (M)-2-[4-[6-Chloro-7-(2-fluoro-6-hydroxy-phenyl)-1-(2-isopropyl-4-methyl-3-pyridyl)-2-oxo-pyrido[2,3-d]pyrimidin-4-yl]-1-prop-2-enoyl-piperazin-2-yl]acetonitrile] | > 7.5 | 2.41 | 0.166 | – | – |
| C=CC(=O)N1CCN(c2nc(=O)n(-c3c(C)ccnc3C(C)C)c3nc(-c4ccccc4F)c(Cl)cc23)CC1CC#N (atropisomer, axis not shown; (M)) [Example 145-2, (M)-2-[4-[6-Chloro-7-(2-fluorophenyl)-1-(2-isopropyl-4-methyl-3-pyridyl)-2-oxo-pyrido[2,3-d]pyrimidin-4-yl]-1-prop-2-enoyl-piperazin-2-yl]acetonitrile] | > 7.5 | – | 0.344 | – | 1.68 |
| C=CC(=O)N1CCN(c2nc(=O)n(-c3c(C)ccnc3C(C)C)c3nc(-c4ccccc4F)c(Cl)cc23)CC1CC#N (atropisomer, axis not shown; (M)) [Example 145-2-1, (M)-2-[4-[6-Chloro-7-(2-fluorophenyl)-1-(2-isopropyl-4-methyl-3-pyridyl)-2-oxo-pyrido[2,3-d]pyrimidin-4-yl]-1-prop-2-enoyl-piperazin-2-yl]acetonitrile] | – | – | 0.294 | > 7.5 | 0.356 |
| C=CC(=O)N1CCN(c2nc(=O)n(-c3c(C)ccnc3C(C)C)c3nc(-c4ccccc4F)c(Cl)cc23)CC1CC#N (atropisomer, axis not shown; (M)) [Example 145-2-2, (M)-2-[4-[6-Chloro-7-(2-fluorophenyl)-1-(2-isopropyl-4-methyl-3-pyridyl)-2-oxo-pyrido[2,3-d]pyrimidin-4-yl]-1-prop-2-enoyl-piperazin-2-yl]acetonitrile] | – | – | 0.238 | > 7.5 | 0.213 |
| C=CC(=O)N1C[C@H](C)N(c2nc(=O)n3c4nc(c(Cl)cc24)-c2ccccc2C/C=C/Cc2cccc(C(C)C)c2-3)C[C@H]1C (atropisomer, axis not shown; (M)) [Example 146-2, (M)-(9Z)-19-Chloro-22-((2S,5R)-2,5-dimethyl-4-(2-propenoyl)-1-piperazinyl)-3-(2-propanyl)-1,23,26-triazapentacyclo[16.6.2.0~2,7~.0~12,17~.0~21,25~]hexacosa-2,4,6,9,12,14,16,18,20,22,25-undecaen-24-one, (M)-19-chloro-22-((2S,5R)-2,5-dimethyl-4-(2-propenoyl)-1-piperazinyl)-3-(2-propanyl)-1,23,26-triazapentacyclo[16.6.2.0~2,7~.0~12,17~.0~21,25~]hexacosa-2,4,6,9,12,14,16,18,20,22,25-undecaen-24-one] | 6.51 | 0.038 | 0.028 | – | – |
| C=CC(=O)N1CCN(c2nc(=O)n(-c3c(C)ccnc3C(C)C)c3nc(-c4ccccc4F)c(Cl)cc23)C2CC21 (atropisomer, axis not shown; (M)) [Example 222, (M)-4-(5-Acryloyl-2,5-diazabicyclo[4.1.0]heptan-2-yl)-6-chloro-7-(2-fluorophenyl)-1-(2-isopropyl-4-methylpyridin-3-yl)pyrido[2,3-d]pyrimidin-2(1H)-one] | – | – | 0.705 | 2.71 | 0.057 |
| C=CC(=O)N1CCN(c2nc(=O)n(-c3c(C)ccnc3C(C)C)c3nc(-c4ccccc4F)c(Cl)cc23)[C@H]2C[C@H]21 (atropisomer, axis not shown; (M)) [Example 222-2, (M)-4-((1S,6R)-5-acryloyl-2,5-diazabicyclo[4.1.0]heptan-2-yl)-6-chloro-7-(2-fluorophenyl)-1-(2-isopropyl-4-methylpyridin-3-yl)pyrido[2,3-d]pyrimidin-2(1H)-one] | – | – | 0.014 | 2.52 | 0.048 |
| C#Cc1ccc(F)c(-c2nc3c(cc2Cl)c(N2C[C@@H](C)N(C(=O)C=C)C[C@@H]2C)nc(=O)n3-c2c(C)ccnc2C(C)C)c1 (atropisomer, axis not shown; (M)) [Example 226, (M)-6-Chloro-4-[(2S,5R)-2,5-dimethyl-4-prop-2-enoyl-piperazin-1-yl]-7-(5-ethynyl-2-fluoro-phenyl)-1-(2-isopropyl-4-methyl-3-pyridyl)pyrido[2,3-d]pyrimidin-2-one] | – | – | 0.04 | > 7.5 | 0.063 |
| C=CC(=O)N1C[C@H](C)N(c2nc(=O)n3c4nc(c(Cl)cc24)-c2ccccc2C/C=C\Cc2ccccc2-3)C[C@H]1C (atropisomer, axis not shown; (P)) [Example 146-3] | > 7.5 | – | 7.03 | – | 4.26 |
